Experimental data published in PMC5974752, “Bax/Tubulin/Epithelial-Mesenchymal Pathways Determine the Efficacy of Silybin Analog HM015k in Colorectal Cancer Cell Growth and Metastasis” (Frontiers in Pharmacology, 2018).

Assays:
[1] = tested on: HCT116 cells; assay: Detection of reactive oxygen species (H2DCF-DA); type: cell-based, human; details: 1, 2 and 4 μM, 24 and 48 h, vs vehicle
Experimental: H2DCF-DA was used as previously described (Amawi et al., [2017c]). The cells that had been incubated with the test compound were further incubated with 3 μM of the H2DCF-DA working solution for 30 min at 37°C. The fluorescence level of oxidized DCF (excitation at 485 nm and emission at 535 nm) was detected under EVOS digital fluorescent microscope at 40x.

[2] = tested on: α-tubulin; assay: Immunofluorescence staining in HCT116 cells; type: cell-based, human; details: 2 or 4 μM, overnight, p < 0.001 vs control
Experimental: (§1) HCT116 cells were used to ascertain the action of compound 15k on α-tubulin, E-cadherin and β-catenin. The cells were seeded on to culture glass covers inserted in 6 well plates. The compound was added at 0, 2, and 4μM and incubated with the cells overnight at 37°C. Paraformaldehyde (4%) was used for cell fixation, followed by permiabilization with 0.3% triton 100× in PBS for 25 min. The cells were blocked with 3% BSA in PBS for 30 min. The α-tubulin, E-cadherin, or β-catenin rabbit antibodies in the correct dilution were added, followed by fluorescent anti-rabbit secondary antibody in the same manner. The nuclei were stained with the nuclear dye, DAPI, for 15 min. The EVOS cell imaging system was used to detect the fluorescence from each slide.

[3] = tested on: β-catenin; assay: Immunofluorescence staining in HCT116 cells; type: cell-based, human; details: 2 and 4 μM, p < 0.01 vs vehicle
Experimental: as §1

[4] = tested on: E-cadherin; assay: Immunofluorescence staining in HCT116 cells; type: cell-based, human; details: 2 μM p < 0.05, 4 μM p < 0.001, 24 h
Experimental: as §1

[5] = tested on: HCT116 cells; assay: Hoechst staining of nuclear condensation; type: cell-based, human; details: 2 or 4 μM, overnight, vs vehicle
Experimental: Nuclear condensation was detected using Hoechst 33258 DNA dye. HCT116 cells were seeded at 1 × 10^5 cells/well in 6-well plates and incubated overnight at 37°C. The following day, cells were exposed to 15k or 15j (0, 2, and 4 μM) and further incubated overnight at 37°C. The cells were fixed and stained with Hoechst 33258 for at least 30 min. An EVOS digital microscope was used to detect the stained nucleus fluorescence at wavelengths of 460–490 nm.

[6] = tested on: HCT116 cells; assay: IncuCyte annexin V red real time apoptosis; type: cell-based, human
Experimental: For real time quantification of apoptosis induction, the fluorescent Caspase 3/7 and Annexin V red reagents, with an excitation maximum of 500 and 593 nm and an emission maximum of 530 and 614 nm, respectively, were used. The HCT116 cells were seeded at a density of 1,000 cell/well and allowed to grow overnight. The next day, compound 15k at 0, 2, 4, and 8μM was prepared and added, directly followed by the caspase 3/7 reagent at final concentration of 5μM or annexin V red reagent in final dilution of 1: 200. The cells were then incubated in IncuCyte Zoom live cell imaging and pictures were taken every 2 h for up to 50 h and analyzed using the integrated software. The IncuCyte® Caspase-3/7 apoptosis assay reagent couples the activated caspase-3/7 recognition motif (DEVD) to NucView™ 488, a DNA intercalating dye to enable quantification of apoptosis over time. Caspase-3/7 assay reagent is non-perturbing to cell growth and morphology. When added to cell culture medium, this inert, non-fluorescent substrate crosses the cell membrane, where it is cleaved by activated caspase-3/7, resulting in the release of the DNA dye and green fluorescent staining of nuclear DNA.

[7] = tested on: HCT116 Bak knockout (Bak–/–) cells; assay: MTT assay, knockout cells; type: cell-based; details: Homo sapiens, HCT-116, not significantly different from WT
Experimental: (§2) Colorectal cancer cell lines, including HCT116, LOVO, and S1, with varying drug sensitivity and invasiveness, were grown as adherent monolayer in culturing flasks. Normal epithelial cells lines (Chinese hamster ovarian: CHO, normal epithelial colon: CRL1459) were also grown. Both cancerous and normal cell lines were kindly obtained from the late Dr. Gary Kruh (University of Chicago, Illinois). In addition, CRC HCT116 Bax knockout (Bax–/–) cells were kindly provided by Dr. Bert Vogelstein (Johns Hopkins, Baltimore) (Zhang et al., [2000]), Bak knockout (Bak–/–) and Bax-Bak double knockout (Bax–/– and Bak–/–) cells were kindly provided by Richard Youle (NIH, […], MD) (Wang and Youle, [2012]). DMEM, with 4.5 g of glucose, was supplemented with 10% fetal bovine serum (FBS) and 1% penicillin/streptomycin and used for all cell lines. The cells were cultured in a humidified incubator containing 5% CO2 at 37°C. All of cells were checked and confirmed to be free of fungi and mycoplasma. Cells were obtained from frozen stocks and cell passaging (up to P4) was performed at 80% cell confluency by PBS and trypsin + 2.2 mM EDTA.
(§3) The 3-(4,5-dimethylthiazol-2-yl)-2,5-diphenyltetrazolium bromide (MTT) assay was used to determine the sensitivity of the different CRC cells to the novel silybin derivatives (Hussein et al., [2017]; Manivannan et al., [2017]). The cells were seeded at a density of 4,000–5,000 cells/well in 96 well plates and incubated with serial dilutions of the compounds (0, 0.1, 0.3, 1, 3, 10, 30, and 100 μM). The MTT dye (4 mg/ml) was added after 72 h of incubation and incubated with the cells for an additional 4 h at 37°C. […] A DTX 880 multimode detector (Beckman Coulter Life, Indianapolis IN, USA) was used to determine the absorbance readings at a wavelength of 570 nm. The IC50 values were determined based on 3 separate experiments, with each experiment done in triplicate. The selectivity of the compounds was determined by comparing their cytotoxicity for CRC to normal epithelial cell lines (CHO, and CRL1459).

[8] = tested on: HCT116 Bax-Bak double knockout (DKO) cells; assay: MTT assay, knockout cells; type: cell-based; details: Homo sapiens, HCT-116, p < 0.05 vs WT
Experimental: as §2, §3

[9] = tested on: LOVO cells; assay: Transwell migration assay; type: cell-based, human; details: 2 and 4 μM, 24 h, vs vehicle
Experimental: The effect of compound 15k on the invasiveness of LOVO was tested using 24 trans-well inserts with an […]. The addition of the insert to the well forms two chambers (upper and lower), where the upper chamber was used to grow the cells on the porous membrane. The lower chamber was filled with 600 μl of cell-free DMEM medium. A 200 μl of cell suspension was added to each insert and allowed to attach for 1 h. The test compound was added in different concentrations and incubated with the cells for 24 h. […] Finally, the remaining migrated cells were fixed by methanol and dyed with 0.1% crystal violet dye and observed with an EVOS microscope. The number of migrated cells was counted and compared between the treated and control cells.

IC50 [7]: 3.6 µM
IC50 [8]: 13.6 µM
Compound: O=C(/C=C/c1cccc(OCc2ccccc2)c1)c1ccc(O)cc1 [Compound 15k]
ROS formation (oxidized DCF fluorescence) [1]: significantly increased ROS formation
α-tubulin green fluorescence [2]: significant reduction
level of β-catenin available for nuclear translocation (immunostaining) [3]: significant decrease
E-cadherin expression (immunostaining) [4]: significantly increased
nuclear condensation / fragmentation [5]: significant increase in blue fluorescence, as well as highly condensed, fragmented nuclei chromatin
annexin V red fluorescence over time ([6]; 2, 4 or 8 μM, vs control): significantly increased annexin V red fluorescence
incubation time at which significant difference in annexin V fluorescence appeared ([6]; vehicle vs 15k): 12 h
number of cells migrated through transwell [9]: significantly decreased the number of LOVO cells that migrated
